According to patent US20070049592A1, “Bis-aryl urea compounds and methods of use” (priority 2005, published 2007):
pIC50: −log10 of the molar value.

Legend:
[1] = test system: Human Umbilical Vein Endothelial cells; assay: HUVEC proliferation assay (VEGF); assay type: cell-based; settings: VEGF-stimulated HUVEC proliferation
Experimental: Human Umbilical Vein Endothelial cells are purchased from Clonetics, Inc., as cryopreserved cells harvested from a pool of donors. These cells, at passage 1, are thawed and expanded in EBM-2 complete medium, until passage 2 or 3. The cells are trypsinized, washed in DMEM+10% FBS+antibiotics, and spun at 1000 rpm for 10 min. Prior to centrifugation of the cells, a small amount is collected for a cell count. After centrifugation, the medium is discarded, and the cells are resuspended in the appropriate volume of DMEM+10% FBS+antibiotics to achieve a concentration of 3×10^5 cells/mL. Another cell count is performed to confirm the cell concentration. The cells are diluted to 3×10^4 cells/mL in DMEM+10% FBS+antibiotics, and 100 μL of cells are added to a 96-well plate. The cells are incubated at 37° C. for 22 h.
Prior to the completion of the incubation period, compound dilutions are prepared. Five-point, five-fold serial dilutions are prepared in DMSO, at concentrations 400-fold greater than the final concentrations desired. 2.5 μL of each compound dilution are diluted further in a total of 1 mL DMEM+10% FBS+antibiotics (400× dilution). Medium containing 0.25% DMSO is also prepared for the 0 μM compound sample. At the 22 h timepoint, the medium is removed from the cells, and 100 μL of each compound dilution is added. The cells are incubated at 37° C. for 2-3 h.
During the compound pre-incubation period, the growth factors are diluted to the appropriate concentrations. Solutions of DMEM+10% FBS+antibiotics, containing either VEGF or bFGF at the following concentrations: 50, 10, 2, 0.4, 0.08, and 0 ng/mL are prepared. For the compound-treated cells, solutions of VEGF at 550 ng/mL or bFGF at 220 ng/mL for 50 ng/mL or 20 ng/mL final concentrations, respectively, are prepared since 10 μL of each will be added to the cells (110 μL final volume). At the appropriate time after adding the compounds, the growth factors are added. VEGF is added to one set of plates, while bFGF is added to another set of plates. For the growth factor control curves, the media on wells B4-G6 of plates 1 and 2 are replaced with media containing VEGF or bFGF at the varying concentrations (50-0 ng/mL). The cells are incubated at 37° C. for an additional 72 h.
At the completion of the 72 h incubation period, the medium is removed, and the cells are washed twice with PBS. After the second wash with PBS, the plates are tapped gently to remove excess PBS, and the cells are placed at −70° C. for at least 30 min. The cells are thawed and analyzed using the CyQuant fluorescent dye (Molecular Probes C-7026), following the manufacturer's recommendations. The plates are read on a Victor/Wallac 1420 workstation at 485 nm/530 nm (excitation/emission). Raw data is collected and analyzed using a 4-parameter fit equation in XLFit. IC50 values are then determined.

[2] = test system: production of TNF by monocytes activated with bacterial lipopolysaccharide (LPS); assay: Lipopolysaccharide-activated monocyte TNF production assay; assay type: cell-based; settings: Homo sapiens, as a determination of p38 activity, read-out: IC50 values in the monocyte assay (LPS induced TNF release)
Experimental: Test compounds were evaluated in vitro for the ability to inhibit the production of TNF by monocytes activated with bacterial lipopolysaccharide (LPS). Fresh residual source leukocytes (a byproduct of plateletpheresis) were obtained from a local blood bank, and peripheral blood mononuclear cells (PBMCs) were isolated by density gradient centrifugation on Ficol-Paque Plus (Pharmacia). PBMCs were suspended at 2×10^6/ml in DMEM supplemented to contain 2% FCS, 10 mM, 0.3 mg/ml […], 100 U/ml penicillin G and […] streptomycin sulfate (complete media). Cells were plated into Falcon flat bottom, 96 well culture plates (200 μl/well) and cultured overnight at 37° C. and 6% CO2. Non-adherent cells were removed by washing with 200 μl/well of fresh medium. Wells containing adherent cells (˜70% monocytes) were replenished with 100 μl of fresh medium.
Test compounds were dissolved in […]. Compound stock solutions were prepared to an initial concentration of […]. Stocks were diluted initially to 20-200 μM in complete media. Nine two-fold serial dilutions of each compound were then prepared in complete medium.
One hundred microliters of each test compound dilution were added to microtiter wells containing adherent monocytes and 100 μl complete medium. Monocytes were cultured with test compounds for 60 min at which time 25 μl of complete medium containing 30 ng/ml lipopolysaccharide from E. coli K532 were added to each well. Cells were cultured an additional 4 hrs. Culture supernatants were then removed and TNF presence in the supernatants was quantified using an ELISA.
Flat bottom, 96 well Corning High Binding ELISA plates were coated overnight (4° C.) with 150 μL/well of 3 μg/ml murine anti-human TNF-α MAb (R&D Systems #MAB210). Wells were then blocked for 1 hr at room temperature with 200 μL/well of CaCl2-free ELISA buffer supplemented to contain 20 mg/ml BSA (standard ELISA buffer: […], 150 mM NaCl, 2 mM CaCl2, 0.15 mM thimerosal, pH 7.4). Plates were washed and replenished with 100 μl of test supernatants (diluted 1:3) or standards. Standards consisted of eleven 1.5-fold serial dilutions from a stock of 1 ng/ml recombinant human TNF (R&D Systems). Plates were incubated at room temperature for 1 hr on orbital shaker (300 rpm), washed and replenished with 100 μl/well of 0.5 μg/ml goat anti-human TNF-α (R&D systems #AB-210-NA) biotinylated at a 4:1 ratio. Plates were incubated for 40 min, washed and replenished with 100 μl/well of alkaline phosphatase-conjugated streptavidin (Jackson ImmunoResearch #016-050-084) at 0.02 μg/ml. Plates were incubated 30 min, washed and replenished with 200 μl/well of 1 mg/ml of p-nitrophenyl phosphate. After 30 min, plates were read at 405 nm on a Vmax plate reader.
Standard curve data were fit to a second order polynomial and unknown TNF-α concentrations determined from their OD by solving this equation for concentration. TNF concentrations were then plotted vs. test compound concentration using a second order polynomial. This equation was then used to calculate the concentration of test compounds causing a 50% reduction in TNF production.

| pIC50 [2] | Compound | pIC50 [1] |
| --- | --- | --- |
| ≥ 5.30 | CNc1cc(N(C)C(=O)Nc2cc(C(=O)Nc3cccc(-c4ccccc4)c3)ccc2C)ncn1 [Example 31, N-(1,1′-biphenyl-3-yl)-4-methyl-3-(((methyl(6-(methylamino)-4-pyrimidinyl)amino)carbonyl)amino)benzamide] | > 5.30 |
| ≥ 5.30 | CNc1cc(N(C)C(=O)Nc2cc(C(=O)Nc3ccc(C(F)(F)F)cc3)ccc2C)ncn1 [Example 32, 4-methyl-3-(((methyl(6-(methylamino)-4-pyrimidinyl)amino)carbonyl)amino)-N-(4-(trifluoromethyl)phenyl)benzamide] | > 5.30 |
